Values quoted from earlier work as cited in patent US11931418B2, “Methods of treating severe inflammation” (Ashvattha Therapeutics, Inc., priority 2020, dated 2024).

System: SARS-CoV-2 patients
Details: COVID-19 patients

Substance: lopinavir-ritonavir
- clinical benefit: no benefit observed
